Measurements taken from patent US9173976B2, “Compositions and methods for the treatment of bone voids and open fractures” (POLYPID LTD., priority 2012, dated 2015).
Values after ≈ are worked out from the molar mass of the structure shown.

What was measured:
[1] = Stability of entrapped Doxycycline during hydration in FBS solution at 37° C.; format: physicochemical; details: after hydration for 21 days, matrix: released+reservoir
Protocol: Doxycycline is known to degenerate under hydrating conditions. The matrix composition of the present invention can protect Doxycycline from this degradation. The stability of the entrapped Doxycycline during the hydration of the matrix composition (in FBS solution at 37° C.) was tested. At each time point two parameters were tested: 1) Doxycycline molecules released from the medical device of the invention and 2) Doxycycline molecules reservoir in the medical device of the invention. The latter was extracted from the formulation using methylene chloride. The sum of the two Doxycycline quantities represents the overall quantity of Doxycycline in the product at each time point. Free Doxycycline, incubated under the same conditions, was used as control. Results are plotted in FIG. 3.

[2] = tested on: Staphylococcus aureus (ATCC 25923); test: Antibacterial activity of Doxycycline released from coated bone particles; format: cell-based; details: ATCC25923, released at different time points over 30 days following hydration
Protocol: The antibacterial activity against Staphylococcus aureus (ATCC 25923), of Doxycycline that was released from bone particles coated with the matrix composition of the invention was followed for a period of 30 days following its hydration (FIG. 4). The MIC (Minimal Inhibitory Concentration) for Doxycycline that was released from the matrix composition at different time points was calculated to be ˜1 μg/ml, and MIC 50 (the concentration that inhibits 50% growth) was ˜0.1 μg/ml, values that were similar to the control free Doxycycline.

[3] = tested on: S. aureus; details: Shaarei-Zedek Jerusalem Medical Center Database; cited from earlier work

C[C@H]1c2cccc(O)c2C(=O)C2=C(O)[C@]3(O)C(=O)C(C(N)=O)=C(O)[C@@H](N(C)C)[C@@H]3[C@@H](O)[C@@H]21 [free Doxycycline, Doxycycline]
overall doxycycline remaining intact, of the initial dose [1]: 20%
MIC50 ([2]; read-out: MIC 50 (the concentration that inhibits 50% growth)): ~0.1 µg/mL (≈ 0.225 µM)
MIC ([2]; read-out: MIC (Minimal Inhibitory Concentration)): ~1 µg/mL (≈ 2.25 µM)

penicillin
isolated S. aureus sub species in the clinic resistant to the antibiotic [3]: more than 50%

gentamicin
isolated S. aureus sub species in the clinic resistant to the antibiotic [3]: 30-40%
